Measured values reported in patent US5332739A, “Pyrimidinedione derivatives and antiarrhythmic agents containing same” (Mitsui Toatsu Chemicals, Incorporated, priority 1990, dated 1994).
Counter-ions that a name gives are not always drawn.

Assays:
[1] = test system: ventricular muscle (right ventricle); experiment: Influence on Ventricular Muscle Refractory Period (ERP); assay type: in vivo, mongrel adult dog; conditions: Canis lupus familiaris, iv, anesthetized dog, read-out: ERP (%; extensibility of refractory period); for change in vivo at 0.1 mg/kg: Dose 0.1 mg/kg i.v.; for change in vivo at 0.3 mg/kg: Dose 0.3 mg/kg i.v.; for change in vivo at 1 mg/kg: Dose 1.0 mg/kg i.v.; for change in vivo at 3 mg/kg: Dose 3.0 mg/kg i.v.
Description: Refractory periods were measured in the following manner before and after each of the compounds and d-sotalol shown an Table A was separately administered to a vein or a duodenum, and ERP (%; extensibility of refractory period) was calculated from the measured values in accordance with the following formula: […]
W: Refractory period after administration
Y: Refractory period before administration
To a mongrel adult dog, 30 mg/kg of pentobarbital was administered intravenously, and after being anesthetized, a pair of silver-silver chloride electrodes separated by 3 mm was sewn on an opened right ventricule, and electrical stimulation was given at an interval of 400 msec at a duration time of 4 msec under a current twice as much as the threshold. Afterward, a small amount of alcohol was injected into a sinus artery in order to extinguish a pacemaker activity, and the ventricular refractory period (ERP) was measured under ventricule pacing.
That is, 1 train comprised 10 stimulations, and an interval between two of the trains was usually 400 msec. At the time of the refractory period measurement, however, the above interval was shortened every 10 smec, and the interval between the trains at the time when reaction to the first stimulation of the train disappeared was regarded as the refractory period.
In this case, the electrical stimulation was fed in accordance with a program by a heart stimulation device (Diamedical Co., Ltd.; DHM-226-3).

[2] = test system: Purkinje fiber of the right ventricular free wall; experiment: Influence on Myocardial Action Potential Duration Time (APD75); assay type: cell-based, hybrid adult dog; conditions: Canis lupus familiaris, 20 min, 20 minutes' incubation, 1 Hz, 37° C.; for percent prolongation of action potential duration (APD75) at 1 µg/mL: Dose 1.0 (μg, ml); for percent prolongation of action potential duration (APD75) at 3 µg/mL: Dose 3.0 (μg, ml); for percent prolongation of action potential duration (APD75) at 10 µg/mL: Dose 10.0 (μg, ml)
Description: To a hybrid adult dog, 30 mg/kg of pentobarbital was administered through a vein, and after being anesthetized, the heart was removed. Afterward, the right ventricular free wall of the heart was cut and taken out in a Tyrode solution.
The taken right ventricular free wall was fixed in an incubator at 37° C., and a nutritional solution (20 ml of the Tyrode solution) was refluxed.
In this isolated condition, myocardial action potential duration times (APD75) were measured before and after the administration of the respective compounds prepared in the above examples in Table A and d-sotalol as a control medicine, and APD75 (%) was calculated from the measured results in accordance with the formula: […]
A: APD75 before administration
B: APD75 after administration
Here, APD75 was measured as follows: A field stimulation of 1 Hz was given to the right ventricular free wall, and any variation of an action potential was depicted on an oscilloscope via a glass microelectrode (10 to 20 M.OMEGA.) thrust into a Purkinje fiber of the free wall and via an amplifier. Afterward, a waveform on the oscilloscope was analyzed by the use of a computer, and the time of from a point of the action potential generation to a point of 75% repolarization was measured. This measured time was regarded as the myocardial action potential duration time (APD75).
The compounds and d-sotalol shown in Table A were separately added to the refluxing nutritional solution (20 ml), and after 20 minutes' incubation, APD75 after the administration was calculated from the variation of the myocardial action potential duration time.
Incidentally, this test was carried out in accordance with a Sato et al's method [H. Sato, K. Hashimoto, Arzneimeittel Forschung, 34 (1), 3a, 376-380 (1984)].

SMILES	change in vivo at 0.1 mg/kg [1] [%]	change in vivo at 0.3 mg/kg [1] [%]	change in vivo at 1 mg/kg [1] [%]	change in vivo at 3 mg/kg [1] [%]	percent prolongation of action potential duration (APD75) at 1 µg/mL [2] [%]	percent prolongation of action potential duration (APD75) at 3 µg/mL [2] [%]	percent prolongation of action potential duration (APD75) at 10 µg/mL [2] [%]
CCN(CCCOc1ccc(C(=O)c2ccccc2)cc1)CCNc1cc(=O)n(C)c(=O)n1C [Compound 117, 1,3-dimethyl-6-[2-(N-ethyl-3-[4-benzoylphenoxy]propylamino)ethylamino]-2,4(1H,3H)-pyrimidinedione.oxalate]	3.2	3.2	6.9	16.1	17	23	
Cn1c(N2CCN(CCCOc3ccc(NS(C)(=O)=O)cc3Cl)CC2)cc(=O)n(C)c1=O [Compound 111, 1,3-dimethyl-6-[4-(3-[2-chloro-4-methanesulfonamidophenoxy]propyl)piperazin-1-yl]-2,4(1H,3H)-pyrimidinedione.hydrochloride]	0	2.4	8.6	15.2		19	36
CSc1ccc(OCCCN2CCN(c3cc(=O)n(C)c(=O)n3C)CC2)cc1 [Compound 98, 1,3-dimethyl-6-[4-(3-[4-methylthiophenoxy]propyl)piperazin-1-yl]-2,4 (1H,3H)-pyrimidinedione.hydrochloride]	0	0	7.7	15.4	4	13	25
Cn1c(N2CCN(CCCOc3cccc(C#N)c3)CC2)cc(=O)n(C)c1=O [Compound 12]	0	2.1	4.3	17	4	11	28
CSc1ccc(OCCCN2CCN(c3cc(=O)n(C)c(=O)n3C)CC2)c(NS(C)(=O)=O)c1 [Compound 113, 1,3-dimethyl-6-[4-(3-[4-methylmercapto-2-methanesulfonamidophenoxy]propyl)piperazin-1-yl]-2,4(1H,3H)-pyrimidinedione.hydrochloride]	0	0		17.6	2	17	26
Cn1c(N2CCN(CCCOc3ccccc3C(=O)C3CCCC3)CC2)cc(=O)n(C)c1=O [Compound 39]						26	48
Cn1c(NCCN(CCO)CCCc2ccccc2)cc(=O)n(C)c1=O [Compound 120, 1,3-dimethyl-6-[2-(N-[2-hydroxyethyl]-3-phenylpropylamino)ethylamino]-2,4(1H,3H)-pyrimidinedione.oxalate]					6	14	26
Cn1c(N2CCN(CCCOc3ccc(Cl)cc3C(=O)c3ccccn3)CC2)cc(=O)n(C)c1=O [Compound 52]					9	14	18
CCN(CCCc1ccccc1)CCNc1cc(=O)n(C)c(=O)n1C [Compound 121, 1,3-dimethyl-6-[2-(N-ethyl-3-phenylpropylamino)ethylamino]-2,4(1H,3H)-pyrimidinedione.oxalate]					9	14	16
Cn1c(N2CCN(CCCOc3ccc(C(=O)c4ccccc4)cc3F)CC2)cc(=O)n(C)c1=O [Compound 58]					19	29	36
